Results taken from ChEMBL document CHEMBL1828590 (J Med Chem, 2011).

Key:
[1] = Half life in rat liver microsomes; format: ADME, Microsome
[2] = Half life in dog liver microsomes; format: ADME, Canis lupus familiaris, Microsome
COLO 205 = test: Antiproliferative activity against human COLO205 cells after 96 hrs by celltiter 96 assay; format: functional, cell-based; settings: COLO 205, 96 h
[3] = Oral bioavailability in nude BALB/c mouse at 50 mg/kg; format: ADME, organism-based; settings: in vivo
Mus musculus [4] = test: Toxicity in athymic nu/nu Harlan mouse xenografted with human HCT116 cells assessed as body weight loss at 300 mg/kg, po QD for 21 days measured on day 19; format: organism-based, HCT-116; parameters: dose 300 mg/kg, route oral; settings: in vivo, 504 h
Mus musculus [5] = test: Toxicity in nude BALB/c mouse xenografted with human HCT116 cells assessed as mouse survival at 200 mg/kg, po QD for 21 days measured on day 22; format: organism-based, HCT-116; parameters: dose 200 mg/kg, route oral; settings: in vivo, 504 h
Mus musculus [6] = test: Toxicity in nude BALB/c mouse xenografted with human HCT116 cells assessed as body weight loss at 200 mg/kg, po QD for 21 days measured on day 19; format: organism-based, HCT-116; parameters: dose 200 mg/kg, route oral; settings: in vivo, 504 h
Mus musculus [7] = test: Toxicity in athymic nu/nu Harlan mouse xenografted with human HCT116 cells assessed as body weight loss at 200 mg/kg, po QD for 21 days measured on day 8; format: organism-based, HCT-116; parameters: dose 200 mg/kg, route oral; settings: in vivo, 504 h
Mus musculus [8] = test: Toxicity in athymic nu/nu Harlan mouse xenografted with human HCT116 cells assessed as mouse survival at 200 mg/kg, po QD for 21 days measured on day 22; format: organism-based, HCT-116; parameters: dose 200 mg/kg, route oral; settings: in vivo, 504 h
[9] = Half life in mouse liver microsomes; format: ADME, Microsome; settings: liver microsomes
Mus musculus [10] = test: Toxicity in athymic nu/nu Harlan mouse xenografted with human HCT116 cells assessed as body weight loss at 200 mg/kg, po QD for 21 days measured on day 19; format: organism-based, HCT-116; parameters: dose 200 mg/kg, route oral; settings: in vivo, 504 h
[11] = Half life in human liver microsomes; format: ADME, Microsome
[12] = Kinetic solubility of the compound at pH 7 with […] DMSO; format: physicochemical; settings: buffer, read-out: Kinetic_solubility
Mus musculus [13] = test: Toxicity in nude BALB/c mouse xenografted with human A2780 cells assessed as maximum body weight loss at 200 mg/kg, po QD for 21 days measured on day 13; format: organism-based; parameters: dose 200 mg/kg, route oral; settings: in vivo, 504 h
HCT-116 [14] = test: Antitumor activity against human HCT116 cells xenografted in athymic nu/nu Harlan mouse assessed as tumor growth inhibition at 200 mg/kg, po qd for 21 days measured on day 22; format: functional; settings: read-out: TGI
HCT-116 [15] = test: Antitumor activity against human HCT116 cells xenografted in athymic nu/nu Harlan mouse assessed as tumor growth inhibition at 100 mg/kg, po qd for 21 days measured on day 22; format: functional; settings: read-out: TGI
Mus musculus [16] = test: Toxicity in athymic nu/nu Harlan mouse xenografted with human HCT116 cells assessed as mouse survival at 50 mg/kg, po QD for 21 days measured on day 22; format: organism-based, HCT-116; parameters: dose 50 mg/kg, route oral; settings: in vivo, 504 h
HCT-116 [17] = test: Antitumor activity against human HCT116 cells xenografted in athymic nu/nu Harlan mouse assessed as tumor growth inhibition at 50 mg/kg, po qd for 21 days measured on day 22; format: functional; settings: read-out: TGI
Mus musculus [18] = test: Toxicity in athymic nu/nu Harlan mouse xenografted with human HCT116 cells assessed as body weight loss at 100 mg/kg, po QD for 21 days measured on day 8; format: organism-based, HCT-116; parameters: dose 100 mg/kg, route oral; settings: in vivo, 504 h
Mus musculus [19] = test: Toxicity in athymic nu/nu Harlan mouse xenografted with human HCT116 cells assessed as mouse survival at 100 mg/kg, po QD for 21 days measured on day 22; format: organism-based, HCT-116; parameters: dose 100 mg/kg, route oral; settings: in vivo, 504 h
[20] = biological target: T1, Polyamine deacetylase HDAC10 (Homo sapiens, UniProt Q969S8)
T1 sequence (Q969S8 whole entry): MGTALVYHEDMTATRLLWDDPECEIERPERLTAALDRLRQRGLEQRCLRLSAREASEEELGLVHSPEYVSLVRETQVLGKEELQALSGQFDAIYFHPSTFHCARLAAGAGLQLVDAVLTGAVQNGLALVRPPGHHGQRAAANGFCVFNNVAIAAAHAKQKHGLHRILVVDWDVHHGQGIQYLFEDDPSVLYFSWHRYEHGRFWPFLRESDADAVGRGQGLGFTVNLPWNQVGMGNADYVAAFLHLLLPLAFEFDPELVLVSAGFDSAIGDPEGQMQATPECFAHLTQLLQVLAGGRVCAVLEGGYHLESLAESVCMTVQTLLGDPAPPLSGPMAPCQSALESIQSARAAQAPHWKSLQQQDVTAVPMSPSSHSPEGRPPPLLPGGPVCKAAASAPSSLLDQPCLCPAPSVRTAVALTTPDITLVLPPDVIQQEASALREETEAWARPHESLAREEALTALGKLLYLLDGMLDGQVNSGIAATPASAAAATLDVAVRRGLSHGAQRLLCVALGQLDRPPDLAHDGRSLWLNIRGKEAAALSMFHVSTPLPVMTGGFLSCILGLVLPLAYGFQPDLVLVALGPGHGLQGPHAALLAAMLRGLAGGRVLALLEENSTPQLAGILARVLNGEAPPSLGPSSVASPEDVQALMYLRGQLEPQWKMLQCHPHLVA
Description: Competitive inhibition of HDAC10 using KI-104 as substrate by fluorescence assay

Histone deacetylase 4 = Histone deacetylase 4 (Homo sapiens, UniProt P56524)
Description: Competitive inhibition of HDAC4 using KI-104 as substrate by fluorescence assay

[21] = biological target: T2, Protein deacetylase HDAC6 (Homo sapiens, UniProt Q9UBN7)
T2 sequence (Q9UBN7 whole entry): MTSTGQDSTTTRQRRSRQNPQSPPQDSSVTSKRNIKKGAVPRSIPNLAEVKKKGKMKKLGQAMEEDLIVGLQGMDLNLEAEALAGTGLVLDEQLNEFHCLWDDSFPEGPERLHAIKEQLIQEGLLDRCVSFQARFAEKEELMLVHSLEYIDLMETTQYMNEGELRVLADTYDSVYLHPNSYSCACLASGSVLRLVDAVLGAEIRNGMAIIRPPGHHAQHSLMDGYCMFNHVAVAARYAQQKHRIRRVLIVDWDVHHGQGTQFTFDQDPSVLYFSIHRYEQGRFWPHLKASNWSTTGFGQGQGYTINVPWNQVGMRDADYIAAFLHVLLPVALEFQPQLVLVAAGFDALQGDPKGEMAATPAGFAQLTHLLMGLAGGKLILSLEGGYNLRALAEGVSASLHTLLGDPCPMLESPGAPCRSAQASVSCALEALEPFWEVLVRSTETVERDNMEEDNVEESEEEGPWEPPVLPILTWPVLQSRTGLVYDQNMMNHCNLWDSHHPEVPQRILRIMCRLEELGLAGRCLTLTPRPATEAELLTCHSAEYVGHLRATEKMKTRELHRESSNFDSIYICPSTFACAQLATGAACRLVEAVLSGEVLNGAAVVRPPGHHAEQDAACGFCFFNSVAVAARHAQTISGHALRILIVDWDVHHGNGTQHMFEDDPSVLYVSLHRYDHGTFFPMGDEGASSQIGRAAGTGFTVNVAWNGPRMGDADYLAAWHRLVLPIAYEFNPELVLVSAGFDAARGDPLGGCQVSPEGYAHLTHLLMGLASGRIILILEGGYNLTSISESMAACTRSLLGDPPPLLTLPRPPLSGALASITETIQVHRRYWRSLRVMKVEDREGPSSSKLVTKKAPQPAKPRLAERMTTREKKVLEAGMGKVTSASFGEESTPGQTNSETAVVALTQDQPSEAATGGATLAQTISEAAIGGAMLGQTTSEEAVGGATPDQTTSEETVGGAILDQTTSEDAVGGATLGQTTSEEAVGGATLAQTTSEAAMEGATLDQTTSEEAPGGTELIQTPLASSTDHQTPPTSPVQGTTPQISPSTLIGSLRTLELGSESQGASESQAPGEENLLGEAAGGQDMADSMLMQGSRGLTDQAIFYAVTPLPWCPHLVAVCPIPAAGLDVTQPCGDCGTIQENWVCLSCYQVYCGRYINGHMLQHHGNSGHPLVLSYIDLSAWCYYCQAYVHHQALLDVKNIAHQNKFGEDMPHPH
Description: Competitive inhibition of HDAC6 using KI-104 as substrate by fluorescence assay

Mus musculus [22] = test: Toxicity in athymic nu/nu Harlan mouse xenografted with human HCT116 cells assessed as body weight loss at 200 mg/kg, po QD for 7 days measured on day 5; format: organism-based, HCT-116; parameters: dose 200 mg/kg, route oral; settings: in vivo, 168 h
HCT-116 [23] = test: Antiproliferative activity against human HCT116 cells after 96 hrs by celltiter 96 assay; format: functional, cell-based; settings: HCT-116, 96 h
HCT-116 [24] = test: Antitumor activity against human HCT116 cells xenografted in nude BALB/c mouse assessed as tumor growth inhibition at 200 mg/kg, po qd for 21 days measured on day 15; format: functional; settings: read-out: TGI
HCT-116 [25] = test: Antitumor activity against human HCT116 cells xenografted in athymic nude nu/nu CD1 mouse assessed as tumor growth inhibition at 40 mg/kg, ip qd for 7 days measured on day 10; format: functional; settings: HCT-116, ip, route intraperitoneal, read-out: TGI
A2780 = test: Antiproliferative activity against human A2780 cells after 96 hrs by celltiter 96 assay; format: functional, cell-based; settings: A2780, 96 h
PC-3 = test: Antiproliferative activity against human PC3 cells after 96 hrs by celltiter 96 assay; format: functional, cell-based; settings: PC-3, 96 h

Sequence of Histone deacetylase 4 (P56524 whole entry): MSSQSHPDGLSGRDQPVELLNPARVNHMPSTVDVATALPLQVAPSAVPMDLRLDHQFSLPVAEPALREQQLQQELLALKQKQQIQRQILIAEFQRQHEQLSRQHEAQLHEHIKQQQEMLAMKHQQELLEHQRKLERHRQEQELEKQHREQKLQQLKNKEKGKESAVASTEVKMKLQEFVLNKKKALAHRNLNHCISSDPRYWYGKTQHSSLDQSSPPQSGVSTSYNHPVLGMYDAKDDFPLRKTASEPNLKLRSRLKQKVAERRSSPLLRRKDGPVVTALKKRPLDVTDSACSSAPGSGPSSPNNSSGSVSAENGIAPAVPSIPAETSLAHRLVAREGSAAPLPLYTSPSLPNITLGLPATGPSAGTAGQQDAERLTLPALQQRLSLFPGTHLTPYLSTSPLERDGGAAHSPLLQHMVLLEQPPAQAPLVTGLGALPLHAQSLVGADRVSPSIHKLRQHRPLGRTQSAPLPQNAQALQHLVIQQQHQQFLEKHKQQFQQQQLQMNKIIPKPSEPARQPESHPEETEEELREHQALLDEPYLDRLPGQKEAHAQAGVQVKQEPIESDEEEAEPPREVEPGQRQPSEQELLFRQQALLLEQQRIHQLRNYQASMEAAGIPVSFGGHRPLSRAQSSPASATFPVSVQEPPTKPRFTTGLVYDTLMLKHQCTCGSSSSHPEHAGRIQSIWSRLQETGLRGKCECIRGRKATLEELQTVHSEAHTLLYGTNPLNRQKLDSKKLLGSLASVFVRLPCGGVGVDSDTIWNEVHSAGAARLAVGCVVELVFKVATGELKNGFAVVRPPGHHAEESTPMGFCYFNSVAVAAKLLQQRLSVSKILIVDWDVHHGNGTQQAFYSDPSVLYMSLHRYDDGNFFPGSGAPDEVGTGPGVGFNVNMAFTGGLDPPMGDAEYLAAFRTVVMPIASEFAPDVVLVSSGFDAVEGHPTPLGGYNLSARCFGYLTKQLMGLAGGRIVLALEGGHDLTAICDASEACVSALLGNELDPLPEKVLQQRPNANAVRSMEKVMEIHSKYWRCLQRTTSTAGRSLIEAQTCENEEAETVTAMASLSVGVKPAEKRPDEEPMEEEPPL

Row | SMILES | half-life [1] [h] | half-life [2] [h] | IC50 (COLO 205) [nM] | bioavailability [3] [%] | Activity (Mus musculus [8]) | half-life [9] [h] | Activity (Mus musculus [10]) [%] | half-life [11] [h] | solubility kinetic [12] [µM] | inhibition in vivo at 200 mg/kg (HCT-116 [14]) [%] | inhibition in vivo at 100 mg/kg (HCT-116 [15]) [%] | Activity (Mus musculus [16]) | inhibition in vivo at 50 mg/kg (HCT-116 [17]) [%] | Activity (Mus musculus [19]) | further results
1 | O=C(CCCCCCC(=O)Nc1ccccc1)NO [VORINOSTAT] | > 1 | > 1 | 2120 | 8.3 | Non-toxic | > 1 | 4.6 | > 1 | > 200 |  |  |  |  |  | Activity (Mus musculus [4]): 5.5%; Activity (Mus musculus [5]): Non-toxic; Activity (Mus musculus [6]): 1.9%; Activity (Mus musculus [7]): 8.9%; Activity (Mus musculus [13]): 9.3%
2 | CCCCc1nc2cc(/C=C/C(=O)NO)ccc2n1CCNC(C)C.Cl.Cl | 0.055 | > 1 |  |  |  | 0.6 | 7.9 | > 1 | > 200 | 90 | 60 | Non-toxic | 19 | Non-toxic | Activity (Mus musculus [18]): 5%
3 | O=C(/C=C/c1cccc(S(=O)(=O)Nc2ccccc2)c1)NO [BELINOSTAT] |  |  | 700 | 6.7 | Non-toxic |  |  |  |  | 29 | 26 | Non-toxic | 6 | Non-toxic | Ki [20]: 59 nM; Ki (Histone deacetylase 4): 15 nM; Ki [21]: 10 nM; Activity (Mus musculus [22]): 3.9%; IC50 (HCT-116 [23]): 600 nM; inhibition in vivo at 200 mg/kg (HCT-116 [24]): 42%; inhibition in vivo at 40 mg/kg (HCT-116 [25]): 50%; IC50 (A2780): 670 nM; IC50 (PC-3): 450 nM
